Several values for one entry are separate records, joined by “and”; a condition that tells them apart may be missing. Equal entries are not always repeated.
How the values were obtained:
Type in all cases: biochemical
recombinant human TOP2B = biological target: T1, recombinant human TOP2B (Homo sapiens, UniProt Q02880); assay: DNA decatenation assay, recombinant TOP2B; conditions: for SRbeta (SRTOP2B), decatenation activity: TOP2A IC50 divided by TOP2B IC50; for IC50: enzyme expressed in HEK293F, n=3
T1 construct: Using recombinant full-length human TOP2A and TOP2B enzymes; YFP (N, cleaved yes); made in house; host or cells: HEK293F
Experimental: (§1) The human topoisomerase II decatenation assay was performed to determine the inhibitory effects of BNS-22 and new compounds as previously described with minor modifications[14],[36]. The assay was performed using recombinant human TOP2A or TOP2B generated using the HEK293F YFP-tag expression system as previously described[18],[19],[36]. Briefly, plasmids encoding YFP-TOP2A or YFP-TOP2B were transfected into HEK293F cells (Catalog number 11625019, Thermofisher Scientific), and TOP2 proteins were isolated from cell lysates by anti-YFP nanobody affinity chromatography. After elution by TEV protease cleavage, TOP2 proteins were FPLC purified by sequential cation exchange and size exclusion chromatography. Plasmid encoding TOP2B C88Y was generated by round-the-horn PCR mutagenesis and the sequence was verified by full-plasmid sequencing. Purified TOP2 proteins were stored in a storage buffer containing 20 mM HEPES pH 7.5, 500 mM NaCl, 0.5 mM TCEP, 25% (v/v) glycerol at -80 °C. For decatenation assays, purified TOP2 proteins were incubated with 200 ng kDNA (Topogen) in a reaction buffer containing 50 mM Tris−HCl (pH 8), 100 mM NaCl, 10 mM MgCl2, 0.5 mM DTT, 2 mM ATP, 0.1 mM tris(2-carboxyethyl)phosphine (TCEP), 5% (v/v) glycerol, 70 μg/mL bovine serum albumin, and 1/10 volume of each compound diluted in 10% DMSO (final DMSO concentration 1%) for 40 min at 37 °C. The reaction was then stopped by the addition of gel loading buffer (0.5 volumes of 60% (w/v) glycerol, 60 mM EDTA, 20 mM Tris−HCl (pH 7.5), 0.5 mg/mL bromophenol blue) and the samples were placed on ice. Reaction products were resolved by agarose gel electrophoresis in TBE buffer containing GelRed stain (Biotium). Gels were visualized using an iBright CL1000 (Thermofisher Scientific). Band intensities were quantified using FIJI, and the signal of the treated samples was normalized to the value of the control (untreated sample; 100%) present on the same gel. The normalized signal of three independent measurements was then expressed as mean ± SD. Each presented data point was obtained from distinct sample. Normalized values were plotted as a function of inhibitor concentration to determine IC50 values by nonlinear regression with variable slope using Prism 9 (GraphPad).

recombinant human TOP2A [1] = biological target: T2, recombinant human TOP2A (Homo sapiens, UniProt P11388); assay: DNA decatenation assay, recombinant TOP2A; conditions: for IC50: enzyme expressed in HEK293F, n=3
T2 construct: Using recombinant full-length human TOP2A and TOP2B enzymes; YFP (N, cleaved yes); made in house; host or cells: HEK293F
Experimental: as §1

recombinant human TOP2A [2] = biological target: T2, recombinant human TOP2A; assay: In vitro ATPase activity of TOP2A (coupled assay); conditions: for IC50: n=3
Experimental: Topoisomerase proteins were diluted to 500 nM in storage buffer containing 20 mM HEPES pH 7.5, 500 mM NaCl, 0.5 mM TCEP, 25% glycerol, and 0.2 mg/mL BSA prior to use. A coupled assay was used to measure TOP2-catalyzed ATP hydrolysis in vitro[37] in Costar 96-well plates (Corning Incorporated). […] Reaction plates were pre-warmed to 30 °C for 5 min and ATP was added last to initiate the reaction. The reaction plate was placed in a CLARIOstarPlus plate reader (BMG Labtech) to measure NADH fluorescence at 30 °C every 30 s over 120 cycles using a 340-60 excitation filter and a 480-100 emission filter. Background fluorescence signals calculated from wells containing no ATP were subtracted from each measurement. The slope of NADH fluorescence decay in each well was calculated using the MARS software (BMG Labtech) and reaction wells that lacked topoisomerase inhibitor to account for photobleaching of NADH fluorescence served as background subtraction. Each presented data point was obtained from distinct sample. Values were normalized to untreated controls and plotted as a function of inhibitor concentration to determine IC50 values using Prism 9 (GraphPad).

[3] = 0.125 μM, independent replicates, read-out: Normalized % TOP2A activity, ATPase
[4] = 0.25 μM, independent replicates, read-out: Normalized % TOP2A activity, ATPase
[5] = 1 μM, independent replicates, read-out: Normalized % TOP2A activity, ATPase
[6] = 4 μM, independent replicates, read-out: Normalized % TOP2A activity, ATPase
[7] = 8 μM, independent replicates, read-out: Normalized % TOP2A activity, ATPase
[8] = 0.029 μM, independent replicates
[9] = 0.059 μM, independent replicates
[10] = 0.117 μM, independent replicates
[11] = 0.234 μM, independent replicates
[12] = 0.469 μM, independent replicates
[13] = 0.938 μM, independent replicates
[14] = 1.875 μM, independent replicates
[15] = 3.750 μM, independent replicates
[16] = 7.500 μM, independent replicates
[17] = 15.000 μM, independent replicates
[18] = 30.000 μM, independent replicates

T1 sequence (Q02880 1-1621 isoform Q02880-2): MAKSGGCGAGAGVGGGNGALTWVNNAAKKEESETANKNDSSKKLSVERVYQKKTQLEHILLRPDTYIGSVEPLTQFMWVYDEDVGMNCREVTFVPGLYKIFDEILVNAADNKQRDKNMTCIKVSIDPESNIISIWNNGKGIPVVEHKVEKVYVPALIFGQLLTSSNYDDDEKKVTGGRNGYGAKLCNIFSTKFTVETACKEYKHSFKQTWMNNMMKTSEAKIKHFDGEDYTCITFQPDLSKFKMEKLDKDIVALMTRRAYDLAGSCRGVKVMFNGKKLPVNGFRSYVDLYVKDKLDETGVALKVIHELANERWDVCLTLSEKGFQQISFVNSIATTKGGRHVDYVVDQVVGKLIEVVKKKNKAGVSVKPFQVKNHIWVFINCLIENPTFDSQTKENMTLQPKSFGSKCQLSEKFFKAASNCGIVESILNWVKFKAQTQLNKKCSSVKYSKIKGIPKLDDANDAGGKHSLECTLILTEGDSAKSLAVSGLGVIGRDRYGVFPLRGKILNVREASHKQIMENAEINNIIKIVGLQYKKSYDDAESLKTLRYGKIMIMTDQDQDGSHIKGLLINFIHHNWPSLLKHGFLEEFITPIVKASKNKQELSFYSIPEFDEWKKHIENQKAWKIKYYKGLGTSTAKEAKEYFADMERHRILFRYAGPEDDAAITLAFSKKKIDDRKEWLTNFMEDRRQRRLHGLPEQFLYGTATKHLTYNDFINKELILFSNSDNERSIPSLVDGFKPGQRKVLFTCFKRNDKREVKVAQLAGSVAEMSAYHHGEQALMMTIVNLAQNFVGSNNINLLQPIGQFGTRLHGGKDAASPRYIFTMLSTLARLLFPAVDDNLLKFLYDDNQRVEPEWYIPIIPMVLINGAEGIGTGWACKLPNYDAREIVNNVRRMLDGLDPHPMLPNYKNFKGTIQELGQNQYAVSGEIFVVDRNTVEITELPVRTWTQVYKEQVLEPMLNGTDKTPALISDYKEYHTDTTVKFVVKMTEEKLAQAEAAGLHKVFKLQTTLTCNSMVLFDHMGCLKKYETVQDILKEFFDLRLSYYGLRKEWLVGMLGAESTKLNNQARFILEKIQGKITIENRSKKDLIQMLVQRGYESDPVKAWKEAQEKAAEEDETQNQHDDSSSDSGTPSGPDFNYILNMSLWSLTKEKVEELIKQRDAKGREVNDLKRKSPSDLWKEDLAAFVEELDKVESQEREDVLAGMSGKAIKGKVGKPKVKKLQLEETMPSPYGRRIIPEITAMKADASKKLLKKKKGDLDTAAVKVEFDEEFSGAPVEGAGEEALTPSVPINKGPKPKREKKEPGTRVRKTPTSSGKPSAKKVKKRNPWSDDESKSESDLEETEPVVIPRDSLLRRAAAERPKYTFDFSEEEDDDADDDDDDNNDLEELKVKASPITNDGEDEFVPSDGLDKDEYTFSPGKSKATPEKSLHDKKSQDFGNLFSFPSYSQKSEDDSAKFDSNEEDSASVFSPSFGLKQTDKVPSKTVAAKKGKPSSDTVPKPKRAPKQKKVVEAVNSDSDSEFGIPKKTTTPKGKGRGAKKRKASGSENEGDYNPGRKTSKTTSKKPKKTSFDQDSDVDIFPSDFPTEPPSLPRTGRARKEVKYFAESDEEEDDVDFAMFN
T2 sequence (P11388 whole entry): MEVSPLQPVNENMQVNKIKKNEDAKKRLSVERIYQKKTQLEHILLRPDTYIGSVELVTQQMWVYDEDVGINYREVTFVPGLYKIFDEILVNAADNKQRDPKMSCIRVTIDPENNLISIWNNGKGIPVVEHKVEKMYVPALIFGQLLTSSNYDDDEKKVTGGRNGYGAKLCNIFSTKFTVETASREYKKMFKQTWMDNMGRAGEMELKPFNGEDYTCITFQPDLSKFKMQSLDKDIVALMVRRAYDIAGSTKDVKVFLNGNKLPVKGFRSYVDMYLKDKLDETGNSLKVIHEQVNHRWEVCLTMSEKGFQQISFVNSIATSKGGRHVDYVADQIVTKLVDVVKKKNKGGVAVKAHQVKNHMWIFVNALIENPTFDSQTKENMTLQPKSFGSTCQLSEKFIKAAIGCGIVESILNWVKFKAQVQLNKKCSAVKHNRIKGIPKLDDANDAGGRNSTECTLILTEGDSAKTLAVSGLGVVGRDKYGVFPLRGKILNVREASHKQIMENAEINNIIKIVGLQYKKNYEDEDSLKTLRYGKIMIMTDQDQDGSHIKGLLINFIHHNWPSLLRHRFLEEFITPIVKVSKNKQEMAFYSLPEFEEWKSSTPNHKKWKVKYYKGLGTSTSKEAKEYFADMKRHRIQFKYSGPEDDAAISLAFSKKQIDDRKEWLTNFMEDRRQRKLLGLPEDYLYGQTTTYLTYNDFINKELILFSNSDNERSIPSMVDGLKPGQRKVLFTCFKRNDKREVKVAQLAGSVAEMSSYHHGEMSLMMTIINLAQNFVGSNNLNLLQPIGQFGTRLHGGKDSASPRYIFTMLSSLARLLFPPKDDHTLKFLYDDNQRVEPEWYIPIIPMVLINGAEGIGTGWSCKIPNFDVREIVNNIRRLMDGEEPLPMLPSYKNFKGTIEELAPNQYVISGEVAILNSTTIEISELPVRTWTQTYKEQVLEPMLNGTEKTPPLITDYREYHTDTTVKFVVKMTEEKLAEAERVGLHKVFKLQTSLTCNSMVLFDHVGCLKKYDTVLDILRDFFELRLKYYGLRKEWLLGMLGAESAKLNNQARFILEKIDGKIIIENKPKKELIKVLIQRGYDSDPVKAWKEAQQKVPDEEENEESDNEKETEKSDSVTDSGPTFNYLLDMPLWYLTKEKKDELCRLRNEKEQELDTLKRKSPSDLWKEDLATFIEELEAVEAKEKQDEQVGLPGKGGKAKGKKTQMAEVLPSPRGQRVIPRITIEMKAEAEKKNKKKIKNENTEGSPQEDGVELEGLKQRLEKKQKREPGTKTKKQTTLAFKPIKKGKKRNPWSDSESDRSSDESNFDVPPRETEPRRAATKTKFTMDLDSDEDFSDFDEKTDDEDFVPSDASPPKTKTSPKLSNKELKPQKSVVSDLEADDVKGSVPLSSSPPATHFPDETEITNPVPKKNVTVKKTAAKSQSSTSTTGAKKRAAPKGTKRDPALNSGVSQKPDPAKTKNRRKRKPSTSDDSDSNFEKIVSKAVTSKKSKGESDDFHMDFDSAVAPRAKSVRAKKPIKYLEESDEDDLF

Structure (SMILES): CCCc1cc(=O)oc2c(C(=O)N3CCCc4ccccc43)c(OCCO)ccc12 [5c]
- remaining activity at 0.059 µM (recombinant human TOP2B; 0.059 μM, independent replicates, read-out: Normalized % TOP2B activity, decatenation): 106%
- remaining activity at 0.117 µM (recombinant human TOP2B; 0.117 μM, independent replicates, read-out: Normalized % TOP2B activity, decatenation): 112%
- remaining activity at 0.938 µM (recombinant human TOP2B; 0.938 μM, independent replicates, read-out: Normalized % TOP2B activity, decatenation): 66.9%
- remaining activity at 1.875 µM (recombinant human TOP2B; 1.875 μM, independent replicates, read-out: Normalized % TOP2B activity, decatenation): 29.8%
- SRbeta (SRTOP2B), decatenation activity (recombinant human TOP2B): 2.2
- IC50 (recombinant human TOP2B): 1.43 µM
- IC50 (recombinant human TOP2A [1]): 3.21 µM
- remaining activity at 0.03125 µM (recombinant human TOP2A [2]; 0.03125 μM, independent replicates, read-out: Normalized % TOP2A activity, ATPase): 97.4%
- remaining activity at 0.0625 µM (recombinant human TOP2A [2]; 0.0625 μM, independent replicates, read-out: Normalized % TOP2A activity, ATPase): 86.8%
- remaining activity at 0.125 µM (recombinant human TOP2A [2]; [3]): 79.9%
- remaining activity at 0.25 µM (recombinant human TOP2A [2]; [4]): 62.7%
- remaining activity at 0.5 µM (recombinant human TOP2A [2]; 0.5 μM, independent replicates, read-out: Normalized % TOP2A activity, ATPase): 45.9%
- remaining activity at 1 µM (recombinant human TOP2A [2]; [5]): 25.8%
- remaining activity at 2 µM (recombinant human TOP2A [2]; 2 μM, independent replicates, read-out: Normalized % TOP2A activity, ATPase): 11.6%
- remaining activity at 4 µM (recombinant human TOP2A [2]; [6]): 6.58%
- remaining activity at 8 µM (recombinant human TOP2A [2]; [7]): 3.17%
- IC50 (recombinant human TOP2A [2]): 1.54 µM

Structure (SMILES): CCCc1cc(=O)oc2c(C(=O)N3CCCc4ccccc43)c(OC)cc(OC)c12 [BNS-22]
- Normalized % TOP2B activity, decatenation (recombinant human TOP2B; [8]): 110.4% and 102.5% and 86.14%
- Normalized % TOP2B activity, decatenation (recombinant human TOP2B; [9]): 117.4% and 95.62% and 85.84%
- Normalized % TOP2B activity, decatenation (recombinant human TOP2B; [10]): 120.4% and 94.08% and 92.01%
- Normalized % TOP2B activity, decatenation (recombinant human TOP2B; [11]): 93.24% and 96.15% and 88.28%
- Normalized % TOP2B activity, decatenation (recombinant human TOP2B; [12]): 119.4% and 102% and 86.29%
- Normalized % TOP2B activity, decatenation (recombinant human TOP2B; [13]): 128.5% and 90.51% and 82.07%
- Normalized % TOP2B activity, decatenation (recombinant human TOP2B; [14]): 113% and 60.36% and 75.6%
- Normalized % TOP2B activity, decatenation (recombinant human TOP2B; [15]): 78.05% and 36.23% and 45.78%
- Normalized % TOP2B activity, decatenation (recombinant human TOP2B; [16]): 36.99% and 17.69% and 24.26%
- Normalized % TOP2B activity, decatenation (recombinant human TOP2B; [17]): 19.21% and 12.13% and 18.98%
- Normalized % TOP2B activity, decatenation (recombinant human TOP2B; [18]): 18.37% and 9.163% and 14.61%
- SRbeta (SRTOP2B), decatenation activity (recombinant human TOP2B): 1.6
- IC50 (recombinant human TOP2B): 4 µM
- Normalized % TOP2A activity, decatenation (recombinant human TOP2A [1]; [8]): 129.2% and 104.9% and 108.1%
- Normalized % TOP2A activity, decatenation (recombinant human TOP2A [1]; [9]): 115.3% and 107.3% and 87.18%
- Normalized % TOP2A activity, decatenation (recombinant human TOP2A [1]; [10]): 112.3% and 85.14% and 77.75%
- Normalized % TOP2A activity, decatenation (recombinant human TOP2A [1]; [11]): 113.6% and 104.1% and 111.1%
- Normalized % TOP2A activity, decatenation (recombinant human TOP2A [1]; [12]): 107.6% and 108.2% and 94.85%
- Normalized % TOP2A activity, decatenation (recombinant human TOP2A [1]; [13]): 110.1% and 99.05% and 142.1%
- Normalized % TOP2A activity, decatenation (recombinant human TOP2A [1]; [14]): 103.6% and 97.25% and 87.84%
- Normalized % TOP2A activity, decatenation (recombinant human TOP2A [1]; [15]): 92.41% and 84.64% and 69.95%
- Normalized % TOP2A activity, decatenation (recombinant human TOP2A [1]; [16]): 58.26% and 36.7% and 30.82%
- Normalized % TOP2A activity, decatenation (recombinant human TOP2A [1]; [17]): 19.52% and 10.3% and 12.12%
- Normalized % TOP2A activity, decatenation (recombinant human TOP2A [1]; [18]): 7.598% and 6.508% and 9.979%
- IC50 (recombinant human TOP2A [1]): 6.51 µM
- Normalized % TOP2A activity, ATPase (recombinant human TOP2A [2]; 0.03125 μM, independent replicates): 106.5339% and 96.82% and 104.97%
- Normalized % TOP2A activity, ATPase (recombinant human TOP2A [2]; 0.0625 μM, independent replicates): 99.93% and 96.81% and 104.654%
- Normalized % TOP2A activity, ATPase (recombinant human TOP2A [2]; 0.125 μM, independent replicates): 97.92% and 87.09% and 103.8686%
- Normalized % TOP2A activity, ATPase (recombinant human TOP2A [2]; 0.25 μM, independent replicates): 84.39% and 86.41% and 95.01%
- Normalized % TOP2A activity, ATPase (recombinant human TOP2A [2]; 0.5 μM, independent replicates): 68.7163% and 74.39% and 48.12%
- Normalized % TOP2A activity, ATPase (recombinant human TOP2A [2]; 1 μM, independent replicates): 44.71% and 47.48% and 56.42%
- Normalized % TOP2A activity, ATPase (recombinant human TOP2A [2]; 2 μM, independent replicates): 21.32% and 23.49% and 28.53%
- Normalized % TOP2A activity, ATPase (recombinant human TOP2A [2]; 4 μM, independent replicates): 7.817% and 9.176% and 12.94%
- Normalized % TOP2A activity, ATPase (recombinant human TOP2A [2]; 8 μM, independent replicates): 4.538% and 5.681% and 5.457%
- Normalized % TOP2A activity, ATPase (recombinant human TOP2A [2]; 16 μM, independent replicates): 3.325% and 1.312% and 2.254%
- Normalized % TOP2A activity, ATPase (recombinant human TOP2A [2]; 32 μM, independent replicates): 1.897% and 0.9839% and 2.191%
- IC50 (recombinant human TOP2A [2]): 1.27 µM

Structure (SMILES): C[C@@H](CN1CC(=O)NC(=O)C1)N1CC(=O)NC(=O)C1 [dexrazoxane]
- remaining activity at 0.029 µM (recombinant human TOP2B; 0.029 μM, independent replicates, read-out: Normalized % TOP2B activity, decatenation): 88.8%
- remaining activity at 0.469 µM (recombinant human TOP2B; 0.469 μM, independent replicates, read-out: Normalized % TOP2B activity, decatenation): 75.2%
- remaining activity at 15 µM (recombinant human TOP2B; 15.000 μM, independent replicates, read-out: Normalized % TOP2B activity, decatenation): 12.9%
- remaining activity at 30 µM (recombinant human TOP2B; 30.000 μM, independent replicates, read-out: Normalized % TOP2B activity, decatenation): 5.87%
- SRbeta (SRTOP2B), decatenation activity (recombinant human TOP2B): 0.75
- IC50 (recombinant human TOP2B): 4.5 µM
- remaining activity at 0.059 µM (recombinant human TOP2A [1]; 0.059 μM, independent replicates, read-out: Normalized % TOP2A activity, decatenation): 112%
- remaining activity at 0.469 µM (recombinant human TOP2A [1]; 0.469 μM, independent replicates, read-out: Normalized % TOP2A activity, decatenation): 114%
- remaining activity at 0.938 µM (recombinant human TOP2A [1]; 0.938 μM, independent replicates, read-out: Normalized % TOP2A activity, decatenation): 94.4%
- remaining activity at 1.875 µM (recombinant human TOP2A [1]; 1.875 μM, independent replicates, read-out: Normalized % TOP2A activity, decatenation): 68.7%
- remaining activity at 7.5 µM (recombinant human TOP2A [1]; 7.500 μM, independent replicates, read-out: Normalized % TOP2A activity, decatenation): 33.6%
- IC50 (recombinant human TOP2A [1]): 3.35 µM
- remaining activity at 0.125 µM (recombinant human TOP2A [2]; [3]): 90.6%
- remaining activity at 0.25 µM (recombinant human TOP2A [2]; [4]): 86.6%
- remaining activity at 1 µM (recombinant human TOP2A [2]; [5]): 62.9%
- remaining activity at 4 µM (recombinant human TOP2A [2]; [6]): 29.5%
- remaining activity at 8 µM (recombinant human TOP2A [2]; [7]): 19%
- remaining activity at 16 µM (recombinant human TOP2A [2]; 16 μM, independent replicates, read-out: Normalized % TOP2A activity, ATPase): 14.4%
- IC50 (recombinant human TOP2A [2]): 2.27 µM
